Organism: Rattus norvegicus
Assay: DrugMatrix - Regimen: Daily Repeat
Type: toxicity, organism-based, Sprague-Dawley
Parameters: regimen Daily Repeat, gender Male, age 6-8 weeks
Conditions: in vivo, po, route oral GAVAGE, […]; for ABSOLUTE BASOPHIL / ABSOLUTE EOSINOPHIL / ABSOLUTE LYMPHOCYTE / ABSOLUTE MONOCYTE / ABSOLUTE SEGMENTED NEUTROPHIL / BASOPHIL / EOSINOPHIL / ERYTHROCYTE COUNT / HEMATOCRIT / HEMOGLOBIN / LEUKOCYTE COUNT / LYMPHOCYTE / MEAN CORPUSCULAR HEMOGLOBIN / MEAN CORPUSCULAR HEMOGLOBIN CONCENTRATION / MEAN CORPUSCULAR VOLUME / MONOCYTE / NEUTROPHIL / NUCLEATED RED BLOOD CELLS / PLATELET COUNT: tissue Blood; for ALANINE AMINOTRANSFERASE / ALBUMIN / ALKALINE PHOSPHATASE / ASPARTATE AMINOTRANSFERASE / BLOOD UREA NITROGEN / CARBON DIOXIDE / CHLORIDE / CHOLESTEROL / CREATINE PHOSPHOKINASE / CREATININE / GLUCOSE / LACTATE DEHYDROGENASE / LIPASE / PHOSPHORUS / SODIUM / TOTAL BILIRUBIN / TOTAL PROTEIN / URIC ACID: tissue Plasma
[1] = 450 mg/kg, 120 h, dose level Low, time 5 day
[2] = 1500 mg/kg, 72 h, dose level High, time 3 day
[3] = 1500 mg/kg, 120 h, dose level High, time 5 day

With `CC[C@H](C)C(=O)O[C@H]1C[C@@H](C)C=C2C=C[C@H](C)[C@H](CC[C@@H]3C[C@@H](O)CC(=O)O3)[C@H]21` [LOVASTATIN] the “ABSOLUTE BASOPHIL” value [1] was 0 CELLS/uL, the “ABSOLUTE EOSINOPHIL” value [1] was 0 CELLS/uL and the “ABSOLUTE LYMPHOCYTE” value [1] was 8158 CELLS/uL. The “ABSOLUTE MONOCYTE” value [1] was 134 CELLS/uL, the “ABSOLUTE SEGMENTED NEUTROPHIL” value [1] was 1208 CELLS/uL and the BASOPHIL [1] was 0%. The EOSINOPHIL [1] was 0%, the “ERYTHROCYTE COUNT” value [1] was 6.46 x10E6/uL and the HEMATOCRIT [1] was 40.17%. For the same molecule, the HEMOGLOBIN [1] was 15.27 G/DL, the “LEUKOCYTE COUNT” value [1] was 9.5 x10E3/uL and the LYMPHOCYTE [1] was 86%. For the same molecule, the “MEAN CORPUSCULAR HEMOGLOBIN” value [1] was 23.63 pg, the “MEAN CORPUSCULAR HEMOGLOBIN CONCENTRATION” value [1] was 38.03 G/DL and the “MEAN CORPUSCULAR VOLUME” value [1] was 62.2 fL. For the same molecule, the MONOCYTE [1] was 1.33%, the NEUTROPHIL [1] was 12.67% and the “NUCLEATED RED BLOOD CELLS” value [1] was 0 /100WBC. For the same molecule, the “PLATELET COUNT” value [1] was 1425.67 x10E3/uL, the “ALANINE AMINOTRANSFERASE” value [1] was 153 u/L and the ALBUMIN [1] was 4.83 G/DL. For the same molecule, the “ALKALINE PHOSPHATASE” value [1] was 635.67 u/L, the “ASPARTATE AMINOTRANSFERASE” value [1] was 360.33 u/L and the “BLOOD UREA NITROGEN” value [1] was 15.33 mg/dL. For the same molecule, the “CARBON DIOXIDE” value [1] was 35.67 mmol/L, the CHLORIDE [1] was 100.5 MEQ/L and the CHOLESTEROL [1] was 28.67 mg/dL. The “CREATINE PHOSPHOKINASE” value [1] was 410.33 u/L, the CREATININE [1] was 0.31 mg/dL and the GLUCOSE [1] was 137.33 mg/dL. For the same molecule, the “LACTATE DEHYDROGENASE” value [1] was 182.33 u/L, the LIPASE [1] was 15.33 u/L and the PHOSPHORUS [1] was 8.7 mg/dL. For the same molecule, the SODIUM [1] was 145.2 MEQ/L, the “TOTAL BILIRUBIN” value [1] was 0.23 mg/dL and the “TOTAL PROTEIN” value [1] was 6.1 G/DL. The “URIC ACID” value [1] was 0.5 mg/dL, the “ABSOLUTE BASOPHIL” value [2] was 0 CELLS/uL and the “ABSOLUTE EOSINOPHIL” value [2] was 21.67 CELLS/uL. For the same molecule, the “ABSOLUTE LYMPHOCYTE” value [2] was 6143.33 CELLS/uL, the “ABSOLUTE MONOCYTE” value [2] was 201 CELLS/uL and the “ABSOLUTE SEGMENTED NEUTROPHIL” value [2] was 2134 CELLS/uL. For the same molecule, the BASOPHIL [2] was 0%, the EOSINOPHIL [2] was 0.33% and the “ERYTHROCYTE COUNT” value [2] was 5.62 x10E6/uL. The HEMATOCRIT [2] was 35.1%, the HEMOGLOBIN [2] was 13.97 G/DL and the “LEUKOCYTE COUNT” value [2] was 8.5 x10E3/uL. The LYMPHOCYTE [2] was 72%, the “MEAN CORPUSCULAR HEMOGLOBIN” value [2] was 24.9 pg and the “MEAN CORPUSCULAR HEMOGLOBIN CONCENTRATION” value [2] was 39.83 G/DL. For the same molecule, the “MEAN CORPUSCULAR VOLUME” value [2] was 62.5 fL, the MONOCYTE [2] was 2.33% and the NEUTROPHIL [2] was 25.33%. The “NUCLEATED RED BLOOD CELLS” value [2] was 0 /100WBC, the “PLATELET COUNT” value [2] was 1031.67 x10E3/uL and the “ALANINE AMINOTRANSFERASE” value [2] was 318 u/L. For the same molecule, the ALBUMIN [2] was 4.3 G/DL, the “ALKALINE PHOSPHATASE” value [2] was 538.67 u/L and the “ASPARTATE AMINOTRANSFERASE” value [2] was 602.33 u/L. For the same molecule, the “BLOOD UREA NITROGEN” value [2] was 15.33 mg/dL, the “CARBON DIOXIDE” value [2] was 30.33 mmol/L and the CHLORIDE [2] was 98 MEQ/L. The CHOLESTEROL [2] was 50 mg/dL, the “CREATINE PHOSPHOKINASE” value [2] was 490 u/L and the CREATININE [2] was 0.37 mg/dL. The GLUCOSE [2] was 141.67 mg/dL, the “LACTATE DEHYDROGENASE” value [2] was 851.33 u/L and the LIPASE [2] was 10.33 u/L. The PHOSPHORUS [2] was 10.3 mg/dL, the SODIUM [2] was 142.63 MEQ/L and the “TOTAL BILIRUBIN” value [2] was 0.1 mg/dL. The “TOTAL PROTEIN” value [2] was 5.53 G/DL, the “URIC ACID” value [2] was 0.7 mg/dL and the “ABSOLUTE BASOPHIL” value [3] was 0 CELLS/uL. For the same molecule, the “ABSOLUTE EOSINOPHIL” value [3] was 0 CELLS/uL, the “ABSOLUTE LYMPHOCYTE” value [3] was 8899 CELLS/uL and the “ABSOLUTE MONOCYTE” value [3] was 314.33 CELLS/uL. For the same molecule, the “ABSOLUTE SEGMENTED NEUTROPHIL” value [3] was 2320 CELLS/uL, the BASOPHIL [3] was 0% and the EOSINOPHIL [3] was 0%. The “ERYTHROCYTE COUNT” value [3] was 6.78 x10E6/uL, the HEMATOCRIT [3] was 41.27% and the HEMOGLOBIN [3] was 15.53 G/DL. For the same molecule, the “LEUKOCYTE COUNT” value [3] was 11.53 x10E3/uL, the LYMPHOCYTE [3] was 76% and the “MEAN CORPUSCULAR HEMOGLOBIN” value [3] was 22.93 pg. For the same molecule, the “MEAN CORPUSCULAR HEMOGLOBIN CONCENTRATION” value [3] was 37.63 G/DL, the “MEAN CORPUSCULAR VOLUME” value [3] was 60.93 fL and the MONOCYTE [3] was 2.67%. The NEUTROPHIL [3] was 21.33%, the “NUCLEATED RED BLOOD CELLS” value [3] was 0 /100WBC and the “PLATELET COUNT” value [3] was 1526.33 x10E3/uL. For the same molecule, the “ALANINE AMINOTRANSFERASE” value [3] was 234.33 u/L, the ALBUMIN [3] was 4.7 G/DL and the “ALKALINE PHOSPHATASE” value [3] was 440.67 u/L. The “ASPARTATE AMINOTRANSFERASE” value [3] was 648.33 u/L, the “BLOOD UREA NITROGEN” value [3] was 17 mg/dL and the “CARBON DIOXIDE” value [3] was 35.67 mmol/L. The CHLORIDE [3] was 100.5 MEQ/L, the CHOLESTEROL [3] was 55.33 mg/dL and the “CREATINE PHOSPHOKINASE” value [3] was 603 u/L. For the same molecule, the CREATININE [3] was 0.34 mg/dL, the GLUCOSE [3] was 135 mg/dL and the “LACTATE DEHYDROGENASE” value [3] was 832.33 u/L. For the same molecule, the LIPASE [3] was 14.67 u/L, the PHOSPHORUS [3] was 8.5 mg/dL and the SODIUM [3] was 145.6 MEQ/L. For the same molecule, the “TOTAL BILIRUBIN” value [3] was 0.2 mg/dL, the “TOTAL PROTEIN” value [3] was 6.33 G/DL and the “URIC ACID” value [3] was 0.63 mg/dL.
